The text below walks through data of PubChem BioAssay (NCI).

SMILES strings stand for the structures. Where “and” joins values, the source holds several entries; their conditions need not be identical. Equal entries are not always repeated.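 All cell lines were grown in 96-well plates and treated with compound for 48 hours. GI50 marks 50% less growth. TGI: concentration producing complete growth inhibition.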 A value given as a limit tells only on which side of the number the result lay.

Some test systems named below: NCI-H23 lung; MALME-3M melanoma; UO-31 renal; A549 NSCLC; SF-539 CNS; HOP-62 NSCLC; RPMI-8226 leukemia; SR leukemia; NCI-H522 lung; SW-620 colon.
Common to all, as to experiment: inhibition of tumour cell growth, NCI panel, 48 h

For `CCCN(CCC)c1c([N+](=O)[O-])cc(C(=O)N(CC)CC)cc1[N+](=O)[O-]`, the TGI is 40.8 µM in the assay with NCI-H23 lung; 40.5 µM in the assay on MALME-3M melanoma; 63.1 µM in the assay with UO-31 renal; 38.1 µM in the assay with A549 NSCLC; 58.3 µM in the assay with SF-539 CNS; more than 100 µM in the assay with HOP-62 NSCLC. The TGI in the assay with RPMI-8226 leukemia stood at 36.3 µM; in the assay on SR leukemia, 55.2 µM; in the assay on NCI-H522 lung, 28.6 µM; with SW-620 colon, 84.1 µM.

On to `Cc1cc(C(=O)CSC(=S)SC(C)(C)C)ccc1Cl`, for which the TGI in the assay on NCI-H23 lung was more than 100 µM; with MALME-3M melanoma, 33.4 µM; in the assay with UO-31 renal it was 42.6 µM; in the assay on A549 NSCLC, 50 µM; with SF-539 CNS, 35.7 µM; in the assay on HOP-62 NSCLC, 37.4 µM. The TGI in the assay on RPMI-8226 leukemia came to 52.1 µM; in the assay on SR leukemia, 46.9 µM; in the assay on NCI-H522 lung, 30.3 µM; in the assay on SW-620 colon, 68.3 µM.

With `C=CC12CCN(CC1)C(C(O)c1ccnc3ccc(OC)cc13)C2` (stereo not drawn), the GI50 with NCI-H23 lung was more than 100 µM; in the assay with MALME-3M melanoma it was 86.6 µM; with UO-31 renal, 39.7 µM; with A549 NSCLC it was more than 100 µM; with SF-539 CNS, more than 100 µM; in the assay on HOP-62 NSCLC, more than 100 µM. For the same compound, the GI50 with RPMI-8226 leukemia was more than 100 µM; in the assay with SR leukemia, more than 100 µM; with NCI-H522 lung, 47.8 µM; with SW-620 colon it was more than 100 µM. Further, the TGI in the assay on NCI-H23 lung, with MALME-3M melanoma, in the assay on UO-31 renal, with A549 NSCLC, with SF-539 CNS and in the assay with HOP-62 NSCLC was more than 100 µM throughout. Also, the TGI with RPMI-8226 leukemia, with SR leukemia, in the assay on NCI-H522 lung and with SW-620 colon was more than 100 µM in each case.

`NC(=S)N/N=C/c1ncccc1O`: the GI50 was 1.38 µM with NCI-H23 lung; 4.47 µM with MALME-3M melanoma; 1.48 µM in the assay with UO-31 renal; 3.39 µM with A549 NSCLC; 0.567 µM and 0.242 µM with SF-539 CNS; 2.6 µM with HOP-62 NSCLC. For the same compound, the GI50 in the assay on RPMI-8226 leukemia is 5.92 µM and 2.07 µM; with SR leukemia, 0.585 µM; with NCI-H522 lung it was 2.44 µM and 1.29 µM; with SW-620 colon, 3.3 µM. Also, the TGI is 33.4 µM and 29.7 µM in the assay on NCI-H23 lung; > 64.8 µM and 156 µM with MALME-3M melanoma; > 33.8 µM and 6.46 µM with UO-31 renal; > 59.4 µM and 31.3 µM with A549 NSCLC; 2.69 µM and 1.26 µM in the assay on SF-539 CNS; 11.1 µM and 16.7 µM in the assay on HOP-62 NSCLC. Besides, the TGI in the assay on RPMI-8226 leukemia was more than 1000 µM; with SR leukemia it was 28.8 µM and > 148 µM; in the assay with NCI-H522 lung, > 42.9 µM and 87 µM; in the assay on SW-620 colon, more than 839 µM.

Consider `CO[C@@H]1CC[C@]2(C)OC[C@H](C)[C@@H]3C[C@@H](C)[C@@H](OC(C)=O)[C@@H]4[C@H]3[C@@H]2O[C@H]4C[C@@]1(C)O`, for which the GI50 in the assay on NCI-H23 lung was more than 100 µM; in the assay with MALME-3M melanoma it was 63.9 µM; in the assay on UO-31 renal, more than 100 µM; in the assay on A549 NSCLC, more than 100 µM; in the assay with SF-539 CNS, more than 100 µM; with RPMI-8226 leukemia, more than 100 µM. For the same compound, the GI50 in the assay with SR leukemia, in the assay with NCI-H522 lung and with SW-620 colon was more than 100 µM throughout. For the same compound, the TGI with NCI-H23 lung, with MALME-3M melanoma, with UO-31 renal, in the assay with A549 NSCLC, in the assay with SF-539 CNS and in the assay with RPMI-8226 leukemia was more than 100 µM in each case. Besides, the TGI with SR leukemia, in the assay with NCI-H522 lung and with SW-620 colon was more than 100 µM each time.

`COC(=O)c1c(C)cc(OC)c(C/C=C(\C)CCCc2coc(C=C(C)C)c2)c1OC`: the TGI with NCI-H23 lung, in the assay with UO-31 renal, in the assay with A549 NSCLC, in the assay with SF-539 CNS, in the assay with HOP-62 NSCLC and in the assay on RPMI-8226 leukemia was more than 100 µM throughout. For the same compound, the TGI in the assay on SR leukemia, with NCI-H522 lung and in the assay with SW-620 colon was more than 100 µM in each case.

Turning to `COc1ccc(Cl)cc1NC(=O)c1ccc(NC2=C(Cl)C(=O)N(Cc3ccccc3)C2=O)cc1`, the GI50 with NCI-H23 lung is 55.8 µM; with MALME-3M melanoma it was more than 100 µM; in the assay with UO-31 renal, more than 100 µM; in the assay on A549 NSCLC, more than 100 µM; in the assay on SF-539 CNS it was more than 100 µM; in the assay with HOP-62 NSCLC it was more than 100 µM. The GI50 is 2.76 µM in the assay on SR leukemia, 17.5 µM in the assay on NCI-H522 lung and 93 µM with SW-620 colon. Also, the TGI in the assay on NCI-H23 lung, with MALME-3M melanoma, with UO-31 renal, with A549 NSCLC, in the assay with SF-539 CNS and in the assay with HOP-62 NSCLC was more than 100 µM in each case. Also, the TGI in the assay on SR leukemia was 9.87 µM; in the assay on NCI-H522 lung, more than 100 µM; in the assay on SW-620 colon, more than 100 µM.

Consider `NC(N)=Nc1nc2ccccc2o1`, for which the GI50 was more than 100 µM with NCI-H23 lung; more than 100 µM in the assay on MALME-3M melanoma; 79.4 µM in the assay on UO-31 renal; more than 100 µM in the assay on A549 NSCLC; more than 100 µM in the assay with SF-539 CNS; more than 100 µM in the assay with HOP-62 NSCLC. Also, the GI50 with SR leukemia and in the assay on SW-620 colon was more than 100 µM throughout. Also, the TGI in the assay on NCI-H23 lung, in the assay on MALME-3M melanoma, with UO-31 renal, in the assay on A549 NSCLC, in the assay with SF-539 CNS and in the assay on HOP-62 NSCLC was more than 100 µM each time. The TGI with SR leukemia and with SW-620 colon was more than 100 µM in each case.

Regarding `O=c1cccc(C#CC#C[C@@H]2O[C@H]2CO)o1`, the GI50 was 0.23 µM with NCI-H23 lung; 1.06 µM with UO-31 renal; 2.25 µM with A549 NSCLC; 1.91 µM in the assay on SF-539 CNS; 1.55 µM in the assay with HOP-62 NSCLC; 1.7 µM in the assay with RPMI-8226 leukemia. Besides, the GI50 with SR leukemia was 0.621 µM; in the assay with NCI-H522 lung, 0.814 µM; in the assay on SW-620 colon, 0.746 µM. Also, the TGI with NCI-H23 lung came out at 0.45 µM; in the assay on UO-31 renal, 2.88 µM; in the assay on A549 NSCLC, 4.8 µM; in the assay on SF-539 CNS it was 3.68 µM; in the assay with HOP-62 NSCLC it was 3.03 µM; in the assay on RPMI-8226 leukemia it was 5.49 µM. In addition, the figures for the TGI in the assay with SR leukemia and in the assay on SW-620 colon were more than 100 µM and 3.77 µM, respectively.
